Measured values taken from patent US20010055569A1, “Nasal drug delivery composition” (West Pharmaceutical Services Drug Delivery & Clinical …, priority 1998, published 2001).
≈ marks a conversion by molar mass, not a printed value. Like-named read-outs stand apart in the source and are kept apart here.

Assay: Solubility of drugs in vegetable oils (castor oil, soybean oil)
Conditions: for solubility: oil or lipid, thermodynamic from solid
Experimental: The solubility of flurbiprofen in different vegetable oils was measured by the addition of increasing quantities of the drug to an oil system and determination of the maximum amount that will dissolve by observation of the resultant solution and the onset of a cloudy nature or precipitation.

CC(C(=O)O)c1ccc(-c2ccccc2)c(F)c1 (centres unmarked) [flurbiprofen]
solubility (castor oil BP): 150 mg/mL (≈ 614 mM) | solubility (soybean oil BP): < 50 mg/mL

CN1CCc2cccc3c2[C@H]1Cc1ccc(O)c(O)c1-3 [Apomorphine]
Solubility in soybean oil (room temperature, soybean oil): <10 mg/g

COc1ccc2c(c1)c(CC(=O)O)c(C)n2C(=O)c1ccc(Cl)cc1 [Indomethacin]
Solubility in castor oil: >15 < 20 mg/g | Solubility in soybean oil: <5 mg/g
